Laboratory results as given in PMC10729961, “Putative purine nucleoside interacting residues in the malaria parasite purine uptake transporter PfENT1 are critical for transporter function” (PLOS ONE, 2023).

Columns and labels:
Type in all cases: cell-based
[1] = system: yeast expressing R291C PfENT1; assay: 24-h adenosine-dependent growth assay; design: key: Mutant strains that did not grow are indicated by (ng, no growth)
Method: (§1) The Bioscreen C (Model #: 61400PRO) machine was used to measure proliferation of yeast expressing either wild type or mutant PfENT1 in 24-h assays. Yeast strains were grown overnight in SDM media plus 1 mM adenine. Yeast were spun down and resuspended in sterile water. Yeast were added into wells of honeycomb plates specific for the Bioscreen C (Fisher Scientific Cat No. #NC9976780) to achieve a final OD600 of 0.05 in the total volume of 150 μl per well of yeast and media. […] Each trial contained technical triplicates of every sample. The honeycomb plates were placed in the Bioscreen C where they were shaken continuously on high for 24-h at 30°C. OD600 was measured every 15 min.
(§2) For calculating the doubling time, the formula used was: Dt=ln(2)/kwherek=thegrowthrate
(§3) The k was calculated in Excel using the OD600 values in the growth curve that represented exponential growth (OD600 between 0.2 and 0.6). Alternatively, this formula can also be used: Dt=ln(2)/([ln(OD2)−ln(OD1)]/t2−t1)

[2] = system: yeast expressing D287C PfENT1; assay: 24-h adenosine-dependent growth assay; design: key: Mutant strains that did not grow are indicated by (ng, no growth)
Method: as §1, §2, §3

[3] = system: purine auxotrophic yeast (ade2Δ, fui1Δ); assay: 24-h adenosine-dependent growth assay; design: key: Mutant strains that did not grow are indicated by (ng, no growth); details: ade2Δ strain
Method: as §1, §2, §3

[4] = system: yeast expressing S290C PfENT1; assay: 24-h adenosine-dependent growth assay; design: key: Mutant strains that did not grow are indicated by (ng, no growth)
Method: as §1, §2, §3

[5] = system: yeast expressing Q135C PfENT1; assay: 24-h adenosine-dependent growth assay; design: key: Mutant strains that did not grow are indicated by (ng, no growth)
Method: as §1, §2, §3

[6] = system: yeast expressing W53C PfENT1; assay: 24-h adenosine-dependent growth assay; design: key: Mutant strains that did not grow are indicated by (ng, no growth)
Method: as §1, §2, §3

[7] = system: yeast expressing F288C PfENT1; assay: 24-h adenosine-dependent growth assay; details: mean±SEM
Method: as §1, §2, §3

[8] = system: yeast expressing V52C PfENT1; assay: 24-h adenosine-dependent growth assay; details: mean±SEM
Method: as §1, §2, §3

[9] = system: yeast expressing S48C PfENT1; assay: 24-h adenosine-dependent growth assay; details: mean±SEM
Method: as §1, §2, §3

[10] = system: yeast expressing I137C PfENT1; assay: 24-h adenosine-dependent growth assay; details: mean±SEM
Method: as §1, §2, §3

[11] = system: yeast expressing T136C PfENT1; assay: 24-h adenosine-dependent growth assay; details: mean±SEM
Method: as §1, §2, §3

[12] = system: yeast expressing S49C PfENT1; assay: 24-h adenosine-dependent growth assay; details: mean±SEM
Method: as §1, §2, §3

[13] = system: yeast expressing WT PfENT1; assay: 24-h adenosine-dependent growth assay; details: mean±SEM; for Avg. Doubling time (h) Adenosine growth assay 1 mM: 1 mM adenosine sole purine source; for Avg. Doubling time (h) Adenosine growth assay 2 mM: 2 mM adenosine sole purine source
Method: as §1, §2, §3

[14] = system: yeast expressing L289C PfENT1; assay: 24-h adenosine-dependent growth assay; details: mean±SEM
Method: as §1, §2, §3

[15] = system: yeast expressing N51C PfENT1; assay: 24-h adenosine-dependent growth assay; details: mean±SEM
Method: as §1, §2, §3

[16] = system: yeast expressing L50C PfENT1; assay: 24-h adenosine-dependent growth assay; details: for Avg. Doubling time (h) Adenosine growth assay 1 mM: 1 mM adenosine sole purine source; for Avg. Doubling time (h) Adenosine growth assay 1 mM / Avg. Doubling time (h) Adenosine growth assay 2 mM: 24 h, mean±SEM; for Avg. Doubling time (h) Adenosine growth assay 2 mM: 2 mM adenosine sole purine source
Method: as §1, §2, §3

[17] = system: yeast expressing F286C PfENT1; assay: 24-h adenosine-dependent growth assay
Method: as §1, §2, §3

[18] = system: yeast expressing A134C PfENT1; assay: 24-h adenosine-dependent growth assay; details: mean±SEM
Method: as §1, §2, §3

[19] = system: purine auxotrophic yeast (ade2Δ, fui1Δ); assay: [3H]uridine uptake assay, competition with cold adenosine; details: ade2Δ strain; cold adenosine vs [3H]uridine uptake, 15 min
Method: The radiolabeled uptake assay measures the ability of an unlabeled purine or pyrimidine substrate to inhibit the uptake of radiolabeled substrate into yeast via PfENT1 as previously described. Yeast strains containing PfENT1 (mutant or WT) were grown overnight in SDM media to a final OD600 between 0.2 and 0.5. Purine auxotrophic yeast used as a negative control were grown in YPD media. Yeast were spun down and washed three times with 15 mL phosphate buffered saline (PBS; 137 mM NaCl, 2.7 mM KCl, 10 mM KH2PO4, 10 mM Na2HPO4, pH 7.4). The final volume of yeast in PBS varied but it was diluted to a final OD600 = 0.2. […] For determination of minimal and maximal uptake, yeast strains were incubated without radioactivity or with radioactivity but no cold substrate competition, respectively. […] The amount of radioactivity in each well was measured by liquid scintillation counting using a 1450 MicroBeta TriLux (Perkin Elmer). The counts per minute (cpm) were recorded and technical triplicates were averaged. IC50 values were calculated, and statistical analysis was performed using GraphPad/Prism9 software. […]
Statistical significance was calculated using one-way analysis of variance (ANOVA) with GraphPad/Prism9 software. IC50 values were calculated using the non-linear regression dose-response inhibition log(inhibitor) vs normalized response program. […]

[20] = 1 mM adenosine sole purine source
[21] = 2 mM adenosine sole purine source

## Nc1ncnc2c1ncn2[C@@H]1O[C@H](CO)[C@@H](O)[C@H]1O [Adenosine, adenosine]
[1]; [20]
  Avg. Doubling time (h) Adenosine growth assay 1 mM: ng
[1]; [21]
  Avg. Doubling time (h) Adenosine growth assay 2 mM: ng
[2]; [20]
  Avg. Doubling time (h) Adenosine growth assay 1 mM: ng
[2]; [21]
  Avg. Doubling time (h) Adenosine growth assay 2 mM: ng
[3]; 1 mM adenosine sole purine source, mean±SEM
  Avg. Doubling time (h) Adenosine growth assay 1 mM: ng
[3]; [21]
  Avg. Doubling time (h) Adenosine growth assay 2 mM: ng
[4]; [20]
  Avg. Doubling time (h) Adenosine growth assay 1 mM: ng
[4]; [21]
  Avg. Doubling time (h) Adenosine growth assay 2 mM: ng
[5]; [20]
  Avg. Doubling time (h) Adenosine growth assay 1 mM: ng
[5]; [21]
  Avg. Doubling time (h) Adenosine growth assay 2 mM: ng
[6]; [20]
  Avg. Doubling time (h) Adenosine growth assay 1 mM: ng
[6]; [21]
  Avg. Doubling time (h) Adenosine growth assay 2 mM: ng
[7]; [20]
  Avg. Doubling time (h) Adenosine growth assay 1 mM: 3.61 ± 0.60 h
[7]; [21]
  Avg. Doubling time (h) Adenosine growth assay 2 mM: 3.57 ± 0.53 h
[8]; [20]
  Avg. Doubling time (h) Adenosine growth assay 1 mM: 4.20 ± 0.23 h
[8]; [21]
  Avg. Doubling time (h) Adenosine growth assay 2 mM: 3.78 ± 0.29 h
[9]; [20]
  Avg. Doubling time (h) Adenosine growth assay 1 mM: 3.77 ± 0.17 h
[9]; [21]
  Avg. Doubling time (h) Adenosine growth assay 2 mM: 3.68 ± 0.42 h
[10]; [20]
  Avg. Doubling time (h) Adenosine growth assay 1 mM: 3.99 ± 0.50 h
[10]; [21]
  Avg. Doubling time (h) Adenosine growth assay 2 mM: 3.5 ± 0.16 h
[11]; [20]
  Avg. Doubling time (h) Adenosine growth assay 1 mM: 3.12 ± 0.27 h
[11]; [21]
  Avg. Doubling time (h) Adenosine growth assay 2 mM: 3.06 ± 0.09 h
[12]; [20]
  Avg. Doubling time (h) Adenosine growth assay 1 mM: 3.06 ± 0.28 h
[12]; [21]
  Avg. Doubling time (h) Adenosine growth assay 2 mM: 2.99 ± 0.16 h
[13]
  Avg. Doubling time (h) Adenosine growth assay 1 mM: 3.13 ± 0.36 h
  Avg. Doubling time (h) Adenosine growth assay 2 mM: 3.72 ± 0.21 h
[13]; listed as adenosine
  Avg. Doubling time (h) Adenosine growth assay 1 mM: 3.1 h
  Avg. Doubling time (h) Adenosine growth assay 2 mM: 3.7 h
[14]; [20]
  Avg. Doubling time (h) Adenosine growth assay 1 mM: 3.08 ± 0.25 h
[14]; [21]
  Avg. Doubling time (h) Adenosine growth assay 2 mM: 3.12 ± 0.33 h
[15]; [20]
  Avg. Doubling time (h) Adenosine growth assay 1 mM: 3.46 ± 0.26 h
[15]; [21]
  Avg. Doubling time (h) Adenosine growth assay 2 mM: 3.89 ± 0.41 h
[16]
  Avg. Doubling time (h) Adenosine growth assay 1 mM: 5.83 ± 0.47 h
  Avg. Doubling time (h) Adenosine growth assay 2 mM: 7.16 ± 1.21 h
[16]; listed as adenosine
  Avg. Doubling time (h) Adenosine growth assay 1 mM: 5.8 h
  Avg. Doubling time (h) Adenosine growth assay 2 mM: 7.2 h
[16]; in both 1 mM and 2 mM adenosine
  increase of doubling time compared to WT PfENT1 control: 1.9 fold
[17]; [20]
  Avg. Doubling time (h) Adenosine growth assay 1 mM: slow growth
[17]; [21]
  Avg. Doubling time (h) Adenosine growth assay 2 mM: slow growth
[18]; [20]
  Avg. Doubling time (h) Adenosine growth assay 1 mM: 4.42 ± 0.25 h
[18]; [21]
  Avg. Doubling time (h) Adenosine growth assay 2 mM: 4.09 ± 0.24 h
[19]
  Average IC50 (μM) Adenosine: no uptake
